For one assay, the target named is T1, hCES2A (Homo sapiens, UniProt O00748).
T1 sequence (O00748 27-559): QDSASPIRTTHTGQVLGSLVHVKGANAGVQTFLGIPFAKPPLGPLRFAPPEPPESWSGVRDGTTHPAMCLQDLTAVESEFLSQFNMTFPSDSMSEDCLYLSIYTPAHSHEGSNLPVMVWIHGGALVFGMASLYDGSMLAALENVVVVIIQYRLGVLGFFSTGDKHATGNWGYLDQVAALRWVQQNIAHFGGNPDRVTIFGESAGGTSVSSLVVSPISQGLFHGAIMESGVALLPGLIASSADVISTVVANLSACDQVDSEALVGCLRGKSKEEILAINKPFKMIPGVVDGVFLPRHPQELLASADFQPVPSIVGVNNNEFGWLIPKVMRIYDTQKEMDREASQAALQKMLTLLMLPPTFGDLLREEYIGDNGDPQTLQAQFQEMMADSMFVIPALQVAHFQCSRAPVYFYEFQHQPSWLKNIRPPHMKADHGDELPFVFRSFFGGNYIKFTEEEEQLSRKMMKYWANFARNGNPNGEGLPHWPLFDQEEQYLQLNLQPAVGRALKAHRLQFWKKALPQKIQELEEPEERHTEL
Put plainly: Inhibition assay on hCES2A (fluorescent substrate FD). It counts as biochemical. Conditions: mean ± SD, n = 3. As to the method: 1. Detailed experimental, materials, and methods
(§1) The household library of covalent fragments including D and F was from Organic Chemistry […]
(§2) Fig. S1. Partial fragment molecules of a household library targeting to serine. […]
Inhibition assay on hCES2A
Human carboxylesterase 2 (hCES2A) inhibition assays were conducted using FD, a known fluorescent substrate. 3 Briefly, hCES2A (0.4 μg/mL, final concentration) was preincubated with analytes/DMSO (as a control group) in PBS (pH 7.4) at 37 °C for 3 min. This was followed by adding the substrate FD (4 μM, final concentration) in the incubation mixture and allowing it to react for 30 min. The fluorescent signals (excitation/emission, 480 nm/525 nm) were continuously recorded by a microplate reader (SpectraMax iD3Molecular Devices, Austria). […]

The target in assay [1] is T2, hCES1A (Homo sapiens, UniProt P23141).
T2 sequence (P23141 18-567): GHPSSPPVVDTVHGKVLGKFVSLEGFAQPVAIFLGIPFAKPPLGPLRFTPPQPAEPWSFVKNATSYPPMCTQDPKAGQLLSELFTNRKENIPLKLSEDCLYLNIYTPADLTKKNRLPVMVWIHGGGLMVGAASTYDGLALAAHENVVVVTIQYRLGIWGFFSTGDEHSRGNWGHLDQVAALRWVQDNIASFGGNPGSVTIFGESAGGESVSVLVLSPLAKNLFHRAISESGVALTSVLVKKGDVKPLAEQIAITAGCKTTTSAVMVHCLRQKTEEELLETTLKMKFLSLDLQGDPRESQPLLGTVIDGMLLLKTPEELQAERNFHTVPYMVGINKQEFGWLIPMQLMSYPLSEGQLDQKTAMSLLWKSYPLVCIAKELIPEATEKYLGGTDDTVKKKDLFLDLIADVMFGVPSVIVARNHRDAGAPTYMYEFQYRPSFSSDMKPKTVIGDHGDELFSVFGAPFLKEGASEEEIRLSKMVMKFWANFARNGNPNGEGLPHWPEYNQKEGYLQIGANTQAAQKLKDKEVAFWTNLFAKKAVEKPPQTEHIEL
Nature of the assay: Inhibition assay on hCES1A (bioluminogenic substrate NLMe). The settings on record: for IC50: mean ± SD, n = 3; for hCES1A IC50 Fold Increase: ratio of IC50 at 3 min to IC50 at 33 min. It counts as biochemical. As to the method: In this study, a known bioluminogenic probe substrate NLMe was used for human carboxylesterase 1 (hCES1A) inhibition assays. ([Wang et al., 2020]). In brief, the incubation mixture (0.1 mL) consisted of 0.1 M buffer PBS (PH 6.5), hCES1A (0.1 μg/mL, final concentration) and each test compound. […] After 20 min incubation, equal volume of LDR was added to stop reaction. The luminescence signals were monitored in the microplate reader (SpectraMax iD3Molecular Devices, Austria). […]
as §1, §2
Inhibition assay on hCES1A
In this study, a known bioluminogenic probe substrate NLMe was used for human carboxylesterase 1 (hCES1A) inhibition assays. 2 In brief, the incubation mixture (0.1 mL) consisted of 0.1 M buffer PBS (PH 6.5), hCES1A (0.1 μg/mL, final concentration) and each test compound. […]
After 20 min incubation, equal volume of LDR was added to stop reaction.

In assay [2] the target is T2, hCES1A. Nature of the assay: Co-crystallography with hCES1A. In kind it is binding. The settings on record: 1:5 molar ratio. As to the method: Purified hCES1A incubated with F-3 and F-4 at 1:5 M ratio for 1 h at 18°C. Crystallisation screening was performed using commercially available kit sets using sitting drop vapor diffusion at 16°C. Both diffraction-quality crystals were obtained from the condition containing 14.4% peg8000 (w/v), 0.1M MES 6.4, 0.3M CaAc and 20% glycerol. Crystals were flash cooled in liquid nitrogen after cryoprotection in 25% glycerin. Date was collected on 02U1 at Shanghai Synchrotron Radiation Facility (SSRF). Data images were processed using program HKL2000. ([Otwinowski and Minor, 1997]). Crystal structures were solved using molecular replacement with the Phenix software suite using unbound hces1a (Protein Data Bank [PDB] accession number 1MX1 as the search model. Structure refinement was performed using Phenix. ([Adams et al., 2010]). The program COOT was used for manual rebuilding. ([Emsley and Cowtan, 2004]). Molecular graphics images were generated using CCP4MG. ([McNicholas et al., 2011]). […]
fluorogenic probe. 4 Briefly, the incubation mixtures (0.1 mL) contained Tris-HCl buffer, hPL solution (0.25 μg/mL, final concentration), porcine bile salt (0.1 mg/mL, final concentration) and each inhibitor (with different concentrations). […] The fluorescent signals of hydrolytic product were quantified by using the microplate reader (Spectra Max M4, Austria), with the wavelength of 600 nm and 660 nm for excitation and emission, respectively. […]
OPTS, a known fluorogenic probe, was used as the substrate to assess the residual activities of Notum in the presence of each tested compound. […] After preincubated at 37 °C for 1 min, OPTS was added to initiate the hydrolytic reaction and the multi-mode microplate reader (SpectraMax iD3, Molecular Devices, Austria) was used to analyze the florescence signals of the […]
The F-3, F-4, F-10-bound peptides was analysed using the nanoLC-MS/MS system, respectively.6 The purified hCES1A (150 μg, final content) was co-incubated with the small molecule inhibitor F-3/ F-4/ F-10 (100 μM, final concentration) at 4 °C and 25 °C, respectively, for 4h. […]

Where [3] appears, read: 3 min incubation, read-out: hCES2A IC50 3 min.
Setting [4] is: 33 min incubation, read-out: hCES2A IC50 33 min.
Where [5] appears, read: 3 min incubation, read-out: hCES1A IC50 3 min.
Setting [6] is: 33 min incubation, read-out: hCES1A IC50 33 min.

The results in this text go back to PMC11649397, “The study of halogen effect on the reactivity of the serine-targeting covalent warheads” (Frontiers in Chemistry, 2024).

Read-outs that look alike come from different tables or passages of the source.

With `O=C(c1cccc(Cl)c1)C(F)(F)F` [Compound F-2], the IC50 is 0.0768 ± 0.0109 µM on hCES2A (setting [3]), 0.09 ± 0.021 µM at hCES2A (setting [4]), 0.0341 ± 0.0053 µM on hCES1A [1] (setting [5]) and 0.0025 ± 0.0004 µM on hCES1A [1] (setting [6]). Moreover, the “hCES1A IC50 Fold Increase” value at hCES1A [1] came out at 13.6.
Turning to `O=C(c1ccc(C(F)(F)F)cc1)C(F)(F)F` [Compound F-11], the concentration for half-maximal inhibition (IC50) on hCES1A [1] (setting [5]) and at hCES1A [1] (setting [6]) was above 2 µM throughout.
As to `CCc1ccc(C(=O)C(F)(F)F)cc1` [Compound F-15], the results for the IC50 on hCES1A [1] (setting [5]) and on hCES1A [1] (setting [6]) were 0.0187 ± 0.0042 µM and 0.0238 ± 0.0124 µM, respectively.
Taken in the same sequence, the figures for `COc1ccc(C(=O)C(F)(F)F)cc1` [Compound F-14] were 0.0302 ± 0.0121 µM and 0.0297 ± 0.0207 µM.
As to `O=C(c1cccc(Br)c1)C(F)(F)F` [Compound F-5], the concentration for half-maximal inhibition (IC50) at hCES1A [1] (setting [5]) was 0.017 ± 0.003 µM; on hCES1A [1] (setting [6]), 0.0017 ± 0.0005 µM. For the same compound, the “hCES1A IC50 Fold Increase” value at hCES1A [1] was determined as 10.0.
With `O=C(c1ccccc1Cl)C(F)(F)F` [Compound F-3], on hCES1A [2], the “covalent binding mode at the catalytic triad (Ser221) in co-crystal” value is given as “promising covalent binding modes”. In addition, the half-inhibitory concentration (IC50) at hCES2A (setting [3]) worked out at 0.102 ± 0.0206 µM; at hCES2A (setting [4]) it was 0.0856 ± 0.036 µM; at hCES1A [1] (setting [5]), 0.0116 ± 0.0007 µM; on hCES1A [1] (setting [6]) it was 0.0023 ± 0.0004 µM. Also, the “hCES1A IC50 Fold Increase” value at hCES1A [1] stood at 5.0.
On to `O=C(CF)c1ccc(Cl)cc1` [Compound F1-2], for which the half-inhibitory concentration (IC50) on hCES1A [1] (setting [5]) is 1.21 µM; on hCES1A [1] (setting [6]) it was 0.874 ± 0.0922 µM. The “hCES1A IC50 Fold Increase” value on hCES1A [1] stood at 1.4.
On the same counts, the results for `O=C(c1ccccc1Br)C(F)(F)F` [Compound F-6] are 0.0099 ± 0.00101 µM, 0.0528 ± 0.0159 µM and 0.2.
On the same counts, the results for `O=C(c1ccc(F)cc1)C(F)(F)F` [Compound F-8] are 1.7 µM, 0.603 ± 0.107 µM and 2.8.
As to `O=C(c1ccc(Cl)cc1)C(F)(F)F` [Compound F-1], the 50% inhibitory concentration (IC50) at hCES2A (setting [3]) turned out to be 0.0591 ± 0.0098 µM; at hCES2A (setting [4]), 0.0713 ± 0.0194 µM; on hCES1A [1] (setting [5]), 0.0144 ± 0.0019 µM; at hCES1A [1] (setting [6]), 0.0019 ± 0.0002 µM. The “hCES1A IC50 Fold Increase” value on hCES1A [1] was 7.6.
Regarding `Nc1ccc(C(=O)C(F)(F)F)cc1` [Compound F-12], the IC50 on hCES1A [1] (setting [5]) amounted to 0.47 ± 0.12 µM; at hCES1A [1] (setting [6]), 0.67 ± 0.13 µM.
In the case of `O=C(c1ccc(I)cc1)C(F)(F)F` [Compound F-9], the IC50 turned out to be 0.0377 ± 0.0086 µM on hCES1A [1] (setting [5]) and 0.0062 ± 0.0011 µM on hCES1A [1] (setting [6]). In addition, the “hCES1A IC50 Fold Increase” value on hCES1A [1] turned out to be 6.1.
Taken in the same sequence, the figures for `O=C(c1ccc(Cl)cc1)C(F)F` [Compound F1-1] were 0.058 ± 0.006 µM, 0.102 ± 0.0374 µM and 0.6.
For the compound `O=C(c1ccc(Cl)c(Cl)c1)C(F)(F)F` [Compound F-4], on hCES1A [2], the “covalent binding mode at the catalytic triad (Ser221) in co-crystal” value was “forming an expected hemiacetal covalent bond”. The values for the IC50 on hCES1A [1] (setting [5]) and at hCES1A [1] (setting [6]) were 0.01 ± 0.0014 µM and 0.0024 ± 0.0004 µM, respectively. Moreover, the “hCES1A IC50 Fold Increase” value at hCES1A [1] is given as 4.2.
Regarding `O=C(c1cc(Cl)c(Cl)c(Cl)c1)C(F)(F)F` [Compound F-10], the half-inhibitory concentration (IC50) turned out to be 0.03 ± 0.0045 µM on hCES1A [1] (setting [5]) and 0.0028 ± 0.0004 µM on hCES1A [1] (setting [6]). In addition, the “hCES1A IC50 Fold Increase” value at hCES1A [1] is 10.7.
On the same counts, the results for `O=C(c1ccc(Br)cc1)C(F)(F)F` [Compound F-7] are 0.0161 ± 0.0023 µM, 0.0021 ± 0.0006 µM and 7.7.

As a reminder, the IC50 is the concentration needed to halve the response being measured.
